Data as given in patent US20260199484A1, “PROTAC DEGRADERS OF MLLT1 AND/OR MLLT3” (DARK BLUE THERAPEUTICS LTD, priority 2024, published 2026).

Legend:
MLLT1 [1] = target: T1, MLLT1 (Homo sapiens, UniProt Q03111); assay: MLLT1 DC50 and Dmax determination in MV4-11 cells (JESS, 4 h); format: cell-based; parameters: endogenous in cells; host or cells: MV4-11 (ATCC CRL-9591); conditions: MLLT1 degradation
T1 sequence (Q03111 1-559): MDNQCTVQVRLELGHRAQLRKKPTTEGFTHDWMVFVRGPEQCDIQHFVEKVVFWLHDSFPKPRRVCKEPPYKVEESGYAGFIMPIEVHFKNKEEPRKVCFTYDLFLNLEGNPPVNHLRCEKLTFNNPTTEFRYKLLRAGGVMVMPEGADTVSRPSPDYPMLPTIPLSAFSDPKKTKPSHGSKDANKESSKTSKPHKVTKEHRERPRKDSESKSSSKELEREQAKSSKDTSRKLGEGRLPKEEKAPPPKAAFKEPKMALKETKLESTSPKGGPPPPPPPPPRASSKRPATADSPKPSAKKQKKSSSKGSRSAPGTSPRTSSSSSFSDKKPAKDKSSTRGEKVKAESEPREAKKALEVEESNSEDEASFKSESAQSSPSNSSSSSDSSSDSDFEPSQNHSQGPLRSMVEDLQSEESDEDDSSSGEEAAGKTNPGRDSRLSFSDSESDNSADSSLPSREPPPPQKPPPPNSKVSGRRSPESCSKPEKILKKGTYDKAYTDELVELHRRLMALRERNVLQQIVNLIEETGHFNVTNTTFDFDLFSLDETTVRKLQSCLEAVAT
Procedure: MLLT1 degradation efficacy of compounds was tested in an automated chemiluminescent detection system (JESS, Cat #004-650). MV4-11 (#CRL-9591, ATCC) were seeded at a density of 1.2 million cells/well in a non-treated 6-well cell culture plate in 2.4 mL of complete medium (IMDM+10% FBS+1× Penicillin-Streptomycin). 10 mM DMSO stocks were prepared, and cells were treated with eight concentrations of test compounds, starting from 100 nM, 5-fold dilution, at a final DMSO concentration of 0.1% and incubated for 4 h at 37° C., 5% CO2. Post incubation, cells were centrifuged, washed with HBSS and lysed in 60 μL of RIPA buffer supplemented with Protease inhibitors (sc-24948; Santa Cruz). Protein estimation was done using BCA protein assay kit (23228; Pierce). 4 gg protein lysate (4 μL of 1 μg/μL lysate) was loaded into each well of the JESS cartridge (SM-W004; Bio-techne) and the JESS run was performed using 1:900 dilution of anti-human MLLT1 antibody (ABE2596; Merck) and 1:1200 dilution of anti-human GAPDH antibody (2118; Cell signaling technology) with anti-rabbit secondary detection module (DM-001; Bio-Techne). Post run, data was analysed using “Compass for SW” software for chemiluminescent detection. Peak fit was done using “dropped lines” method. Peak area for MLLT1 and GAPDH was used for the calculation of MLLT1 degradation with respect to DMSO control. Data was shown as “% degradation”. % Degradation was plotted against the respective doses (test compound concentration) and dose-response curve (DRC) was generated using four-parameter logistic equation (non-linear regression). Following parameters for each DRC was captured: DC50 (concentration in nM at which degradation is 50%, interpolated from standard curve and transformed to linear scale), Dmax (maximum % degradation observed). DC50 and Dmax data are captured in Table 7 for Example 1 and Example 110, which is a comparative example.

MLLT1 [2] = target: T1, MLLT1; assay: MLLT1 degradation assay in MV4-11 cells (JESS, 24 h); format: cell-based; parameters: endogenous in cells; host or cells: MV4-11 (ATCC CRL-9591); conditions: vs DMSO control
Outline: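 MV4-11 cells treated at 1000, 100 and 10 nM (0.1% DMSO) for 24 h at 37° C; lysates (4 ug protein) run on JESS capillary immunoassay with MLLT1 and GAPDH antibodies. Peak areas give % degradation versus DMSO, binned A (≥75%) to D (<25%).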

## Cc1nn(CCCCCCCC#Cc2cccc3c2CN(C2CCC(=O)NC2=O)C3=O)c2cc(C(=O)Nc3cc4[nH]c([C@H]5CCCN5C)cc4cn3)ccc12 (mixture of isomers) [Example 1, 1-(9-(2-(2,6-dioxopiperidin-3-yl)-1-oxoisoindolin-4-yl)non-8-yn-1-yl)-3-methyl-N-(2-((R)-1-methylpyrrolidin-2-yl)-1H-pyrrolo[3,2-c]pyridin-6-yl)-1H-indazole-6-carboxamide]
MLLT1 [1]
  DC50: 500 pM
MLLT1 [1]; maximum % degradation observed
  Dmax: 87%
MLLT1 [2]; 0.01 μM
  MLLT1% Degradation @ 0.01 μM: A (Category A: A≥75% degradation)
MLLT1 [2]; 0.1 μM
  MLLT1% Degradation @ 0.1 μM: A (Category A: A≥75% degradation)
MLLT1 [2]; 1 μM
  MLLT1% Degradation @ 1 μM: A (Category A: A≥75% degradation)
